# Measured values taken from ChEMBL document CHEMBL1201862, “PubChem BioAssay data set” (2004).
#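 Step 1: Grow cells in 96-well plates. Step 2: Expose to compound for 48 hours at 5 concentrations. Step 3: Interpolate endpoints linearly; if unreached, use highest concentration. GI50: concentration for 50% inhibition of growth.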 Activity calls are given as the source filed them. Cut-off read from the data, not from the text of the source: active = GI50 up to about 1.1 µM and inactive = higher.
# Columns and labels:
# Assay in all cases: growth of human tumour cells (NCI), 48 h
# SK-MEL-5 = system: SK-MEL-5
# MDA-MB-435 = system: MDA-MB-435
# NCI-H226 = system: NCI-H226
# SF-268 = system: SF-268
# SF-539 = system: SF-539
# SF-295 = system: SF-295
# MDA-MB-231 = system: MDA-MB-231
# HL-60 = system: HL-60
# K562 = system: K562
# NCI-H23 = system: NCI-H23
# EKVX = system: EKVX
# MOLT-4 = system: MOLT-4
# SR = system: SR
# HT-29 = system: HT-29
# CCRF-CEM = system: CCRF-CEM
# OVCAR-5 = system: OVCAR-5
# SW-620 = system: SW-620
# SK-MEL-28 = system: SK-MEL-28
# TK-10 = system: TK-10
# NCI-H460 = system: NCI-H460
# SNB-19 = system: SNB-19
# OVCAR-3 = system: OVCAR-3
# SN12C = system: SN12C
# RXF 393 = system: RXF 393
# A498 = system: A498
# COLO 205 = system: COLO 205
# OVCAR-8 = system: OVCAR-8
# SK-OV-3 = system: SK-OV-3
# HOP-92 = system: HOP-92
# NCI-H522 = system: NCI-H522
# SNB-75 = system: SNB-75
# Hs-578T = system: Hs-578T
# HCT-15 = system: HCT-15
# UO-31 = system: UO-31
# A549 = system: A549
# T47D = system: T47D
# MDA-N = system: MDA-N
# CAKI-1 = system: CAKI-1
# 786-0 = system: 786-0
# HOP-62 = system: HOP-62
# NCI/ADR-RES = system: NCI/ADR-RES
# LOX IMVI = system: LOX IMVI
# UACC-62 = system: UACC-62
# OVCAR-4 = system: OVCAR-4
# Malme-3M = system: Malme-3M
# KM12 = system: KM12
# HCT-116 = system: HCT-116
# IGROV-1 = system: IGROV-1
# PC-3 = system: PC-3
# RPMI-8226 = system: RPMI-8226
# BT-549 = system: BT-549
# MCF7 = system: MCF7
# UACC-257 = system: UACC-257
# DU-145 = system: DU-145
# U-251 = system: U-251
# SK-MEL-2 = system: SK-MEL-2
# ACHN = system: ACHN
# HCC 2998 = system: HCC 2998
# M14 = system: M14
smiles,measurement,setting,value
CCCCN1C(=O)C[C@H]2[C@@H]3CCc4cc(OCCN5CCCC5)ccc4[C@H]3CC[C@]2(C)C1=O,GI50,SK-MEL-5,5.94 µM (inactive)
same,GI50,MDA-MB-435,6.31 µM (inactive)
same,GI50,NCI-H226,6.53 µM (inactive)
same,GI50,SF-268,12.9 µM (inactive)
same,GI50,SF-539,9.71 µM (inactive)
same,GI50,SF-295,3.9 µM (inactive)
same,GI50,MDA-MB-231,4.71 µM (inactive)
same,GI50,HL-60,7.1 µM (inactive)
same,GI50,K562,1.74 µM (inactive)
same,GI50,NCI-H23,11.4 µM (inactive)
same,GI50,EKVX,14.5 µM (inactive)
same,GI50,MOLT-4,2.65 µM (inactive)
same,GI50,SR,3.79 µM (inactive)
same,GI50,HT-29,0.979 µM (active)
same,GI50,CCRF-CEM,4.06 µM (inactive)
same,GI50,OVCAR-5,11.4 µM (inactive)
same,GI50,SW-620,11.5 µM (inactive)
same,GI50,SK-MEL-28,3.45 µM (inactive)
same,GI50,TK-10,14.6 µM (inactive)
same,GI50,NCI-H460,5.79 µM (inactive)
same,GI50,SNB-19,12.6 µM (inactive)
same,GI50,OVCAR-3,10.6 µM (inactive)
same,GI50,SN12C,14.2 µM (inactive)
same,GI50,RXF 393,1.89 µM (inactive)
same,GI50,A498,14.7 µM (inactive)
same,GI50,COLO 205,1.92 µM (inactive)
same,GI50,OVCAR-8,15.1 µM (inactive)
same,GI50,SK-OV-3,13.9 µM (inactive)
same,GI50,HOP-92,6.08 µM (inactive)
same,GI50,NCI-H522,8.41 µM (inactive)
same,GI50,SNB-75,3.4 µM (inactive)
same,GI50,Hs-578T,13.2 µM (inactive)
same,GI50,HCT-15,6 µM
same,GI50,UO-31,4.6 µM (inactive)
same,GI50,A549,7.8 µM (inactive)
same,GI50,T47D,12.3 µM (inactive)
same,GI50,MDA-N,4.38 µM (inactive)
same,GI50,CAKI-1,7.96 µM (inactive)
same,GI50,786-0,2.88 µM (inactive)
same,GI50,HOP-62,4.07 µM (inactive)
same,GI50,NCI/ADR-RES,14.7 µM (inactive)
same,GI50,LOX IMVI,3.19 µM (inactive)
same,GI50,UACC-62,3.72 µM (inactive)
same,GI50,OVCAR-4,14.1 µM (inactive)
same,GI50,Malme-3M,3.89 µM (inactive)
same,GI50,KM12,7.94 µM (inactive)
same,GI50,HCT-116,3.64 µM (inactive)
same,GI50,IGROV-1,15.7 µM (inactive)
same,GI50,PC-3,7.48 µM (inactive)
same,GI50,RPMI-8226,2.96 µM (inactive)
same,GI50,BT-549,13.7 µM (inactive)
same,GI50,MCF7,5.65 µM (inactive)
same,GI50,UACC-257,4.38 µM (inactive)
same,GI50,DU-145,13.9 µM (inactive)
same,GI50,U-251,5.51 µM (inactive)
same,GI50,SK-MEL-2,4.67 µM (inactive)
same,GI50,ACHN,12.9 µM (inactive)
same,GI50,HCC 2998,10.3 µM (inactive)
same,GI50,M14,2.03 µM (inactive)
COc1ccc(-c2cs/c(=N\c3ccccc3)n2CC(O)c2ccc([N+](=O)[O-])cc2)cc1 (configuration not stated),GI50,SK-MEL-5,4.04 µM (inactive)
same,GI50,MDA-MB-435,> 100 µM (inactive)
same,GI50,NCI-H226,> 100 µM (inactive)
same,GI50,SF-268,> 100 µM (inactive)
same,GI50,SF-539,> 100 µM (inactive)
same,GI50,SF-295,> 100 µM (inactive)
same,GI50,MDA-MB-231,> 100 µM (inactive)
same,GI50,HL-60,> 100 µM (inactive)
same,GI50,K562,3.84 µM (inactive)
same,GI50,NCI-H23,> 100 µM (inactive)
same,GI50,EKVX,> 100 µM (inactive)
same,GI50,MOLT-4,4.06 µM (inactive)
same,GI50,SR,4.25 µM (inactive)
same,GI50,HT-29,> 100 µM (inactive)
same,GI50,CCRF-CEM,> 71.1 µM (inactive)
same,GI50,OVCAR-5,> 100 µM (inactive)
same,GI50,SW-620,> 100 µM (inactive)
same,GI50,SK-MEL-28,> 100 µM (inactive)
same,GI50,TK-10,> 100 µM (inactive)
same,GI50,NCI-H460,> 100 µM (inactive)
same,GI50,SNB-19,> 100 µM (inactive)
same,GI50,OVCAR-3,> 100 µM (inactive)
same,GI50,SN12C,> 100 µM (inactive)
same,GI50,RXF 393,> 100 µM (inactive)
same,GI50,A498,> 100 µM (inactive)
same,GI50,COLO 205,> 100 µM (inactive)
same,GI50,OVCAR-8,> 100 µM (inactive)
same,GI50,SK-OV-3,> 100 µM (inactive)
same,GI50,HOP-92,> 100 µM (inactive)
same,GI50,NCI-H522,> 100 µM (inactive)
same,GI50,SNB-75,> 100 µM (inactive)
same,GI50,Hs-578T,> 100 µM (inactive)
same,GI50,HCT-15,> 100 µM
same,GI50,UO-31,> 100 µM (inactive)
same,GI50,A549,> 100 µM (inactive)
same,GI50,T47D,5.42 µM (inactive)
same,GI50,MDA-N,> 100 µM (inactive)
same,GI50,CAKI-1,> 100 µM (inactive)
same,GI50,786-0,> 100 µM (inactive)
same,GI50,HOP-62,> 100 µM (inactive)
same,GI50,NCI/ADR-RES,> 74.5 µM (inactive)
same,GI50,LOX IMVI,> 100 µM (inactive)
same,GI50,UACC-62,> 73.5 µM (inactive)
same,GI50,OVCAR-4,> 100 µM (inactive)
same,GI50,Malme-3M,> 100 µM (inactive)
same,GI50,KM12,> 100 µM (inactive)
same,GI50,HCT-116,> 29.9 µM (inactive)
same,GI50,IGROV-1,> 100 µM (inactive)
same,GI50,PC-3,> 100 µM (inactive)
same,GI50,RPMI-8226,6.37 µM (inactive)
same,GI50,BT-549,> 100 µM (inactive)
same,GI50,MCF7,> 63.8 µM (inactive)
same,GI50,UACC-257,> 76.9 µM (inactive)
same,GI50,DU-145,> 100 µM (inactive)
same,GI50,U-251,> 100 µM (inactive)
same,GI50,SK-MEL-2,> 100 µM (inactive)
same,GI50,ACHN,> 100 µM (inactive)
same,GI50,HCC 2998,> 100 µM (inactive)
same,GI50,M14,> 100 µM (inactive)
CCCCCC(=O)OC[n+]1cccc(-c2c(COC(=O)NC(C)C)c(COC(=O)NC(C)C)c3n2CCC3)c1,GI50,SK-MEL-5,40.6 µM (inactive)
same,GI50,MDA-MB-435,> 100 µM (inactive)
same,GI50,NCI-H226,> 64.4 µM (inactive)
same,GI50,SF-268,28.5 µM (inactive)
same,GI50,SF-539,27.9 µM (inactive)
same,GI50,SF-295,59 µM (inactive)
same,GI50,MDA-MB-231,60.4 µM (inactive)
same,GI50,HL-60,10.2 µM (inactive)
same,GI50,K562,37.2 µM (inactive)
same,GI50,NCI-H23,28.8 µM (inactive)
same,GI50,EKVX,> 100 µM (inactive)
same,GI50,MOLT-4,10.4 µM (inactive)
same,GI50,SR,5.78 µM (inactive)
same,GI50,HT-29,46.9 µM (inactive)
same,GI50,CCRF-CEM,6.58 µM (inactive)
same,GI50,OVCAR-5,> 63.5 µM (inactive)
same,GI50,SW-620,31.7 µM (inactive)
same,GI50,SK-MEL-28,> 100 µM (inactive)
same,GI50,TK-10,> 84.1 µM (inactive)
same,GI50,NCI-H460,16.6 µM (inactive)
same,GI50,SNB-19,74.3 µM (inactive)
same,GI50,OVCAR-3,54.1 µM (inactive)
same,GI50,SN12C,30.6 µM (inactive)
same,GI50,RXF 393,26.4 µM (inactive)
same,GI50,A498,15.9 µM (inactive)
same,GI50,COLO 205,62.5 µM (inactive)
same,GI50,OVCAR-8,20.2 µM (inactive)
same,GI50,SK-OV-3,> 57.3 µM (inactive)
same,GI50,HOP-92,27.4 µM (inactive)
same,GI50,NCI-H522,15.6 µM (inactive)
same,GI50,SNB-75,33.7 µM (inactive)
same,GI50,Hs-578T,69.3 µM (inactive)
same,GI50,HCT-15,56.1 µM
same,GI50,UO-31,33.4 µM (inactive)
same,GI50,A549,70.5 µM (inactive)
same,GI50,T47D,> 61.8 µM (inactive)
same,GI50,MDA-N,> 100 µM (inactive)
same,GI50,CAKI-1,10.5 µM (inactive)
same,GI50,786-0,30.7 µM (inactive)
same,GI50,HOP-62,44.1 µM (inactive)
same,GI50,NCI/ADR-RES,49.4 µM (inactive)
same,GI50,LOX IMVI,24 µM (inactive)
same,GI50,UACC-62,23.4 µM (inactive)
same,GI50,OVCAR-4,42.4 µM (inactive)
same,GI50,Malme-3M,43.2 µM (inactive)
same,GI50,KM12,> 100 µM (inactive)
same,GI50,HCT-116,45.3 µM (inactive)
same,GI50,IGROV-1,> 34.2 µM (inactive)
same,GI50,PC-3,44.3 µM (inactive)
same,GI50,RPMI-8226,32.7 µM (inactive)
same,GI50,BT-549,38.1 µM (inactive)
same,GI50,MCF7,31.6 µM (inactive)
same,GI50,UACC-257,> 100 µM (inactive)
same,GI50,DU-145,35.4 µM (inactive)
same,GI50,U-251,> 61.5 µM (inactive)
same,GI50,SK-MEL-2,26.7 µM (inactive)
same,GI50,ACHN,23.1 µM (inactive)
same,GI50,HCC 2998,> 100 µM (inactive)
same,GI50,M14,52.1 µM (inactive)
